From ChEMBL document CHEMBL5291721, “A preclinical secondary pharmacology resource illuminates target-adverse drug reaction associations of marketed drugs” (Nat Commun, 2023)

Columns and labels:
[1] = target: Histamine H3 receptor (Homo sapiens, UniProt Q9Y5N1)
[2] = target: D(1A) dopamine receptor (Homo sapiens, UniProt P21728); assay type: functional, cell-based
[3] = target: 5-hydroxytryptamine receptor 2A (Homo sapiens, UniProt P28223); assay type: functional, cell-based
[4] = target: T1, 5-hydroxytryptamine receptor 1A (Homo sapiens, UniProt P08908); assay type: functional, cell-based
T1 sequence (P08908 whole entry): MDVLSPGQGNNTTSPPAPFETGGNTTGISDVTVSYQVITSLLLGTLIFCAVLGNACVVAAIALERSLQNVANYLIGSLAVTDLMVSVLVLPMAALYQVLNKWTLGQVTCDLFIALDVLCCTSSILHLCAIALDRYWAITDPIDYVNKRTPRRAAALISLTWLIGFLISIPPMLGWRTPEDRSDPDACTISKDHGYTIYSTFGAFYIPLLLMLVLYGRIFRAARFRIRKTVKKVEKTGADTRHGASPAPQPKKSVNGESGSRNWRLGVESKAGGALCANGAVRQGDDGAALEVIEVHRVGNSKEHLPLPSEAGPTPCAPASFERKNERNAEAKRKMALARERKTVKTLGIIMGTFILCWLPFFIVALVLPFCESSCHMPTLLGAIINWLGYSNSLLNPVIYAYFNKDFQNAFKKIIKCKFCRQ

[5] = target: T2, 5-hydroxytryptamine receptor 3A (Homo sapiens, UniProt P46098); assay type: functional
T2 sequence (P46098 whole entry): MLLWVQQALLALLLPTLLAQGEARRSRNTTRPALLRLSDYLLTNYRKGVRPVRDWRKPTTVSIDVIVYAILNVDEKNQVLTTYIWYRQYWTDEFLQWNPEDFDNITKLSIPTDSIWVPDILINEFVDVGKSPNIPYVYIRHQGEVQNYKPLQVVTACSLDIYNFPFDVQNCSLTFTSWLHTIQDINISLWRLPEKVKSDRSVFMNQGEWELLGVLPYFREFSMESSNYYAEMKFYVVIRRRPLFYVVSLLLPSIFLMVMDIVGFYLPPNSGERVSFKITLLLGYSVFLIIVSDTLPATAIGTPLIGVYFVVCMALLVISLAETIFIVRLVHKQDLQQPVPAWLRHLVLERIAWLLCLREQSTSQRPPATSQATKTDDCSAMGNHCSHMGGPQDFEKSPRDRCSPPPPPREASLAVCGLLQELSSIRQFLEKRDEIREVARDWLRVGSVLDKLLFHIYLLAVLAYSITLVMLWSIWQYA

[6] = target: Delta-type opioid receptor (Homo sapiens, UniProt P41143)
Delta-type opioid receptor, sequence (P41143 whole entry): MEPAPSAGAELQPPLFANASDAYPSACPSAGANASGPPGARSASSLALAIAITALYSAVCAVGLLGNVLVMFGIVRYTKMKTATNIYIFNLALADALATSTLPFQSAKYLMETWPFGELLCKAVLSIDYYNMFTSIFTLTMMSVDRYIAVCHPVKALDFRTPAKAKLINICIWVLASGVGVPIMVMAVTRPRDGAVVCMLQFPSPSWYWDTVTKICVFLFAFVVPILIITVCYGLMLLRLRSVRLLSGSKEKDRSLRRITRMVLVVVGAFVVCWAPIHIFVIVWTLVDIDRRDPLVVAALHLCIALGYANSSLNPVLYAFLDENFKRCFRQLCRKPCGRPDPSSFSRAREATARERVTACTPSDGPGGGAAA

[7] = target: Gamma-aminobutyric acid receptor subunit alpha-1 (Rattus norvegicus, UniProt P62813)
Gamma-aminobutyric acid receptor subunit alpha-1, sequence (P62813 whole entry): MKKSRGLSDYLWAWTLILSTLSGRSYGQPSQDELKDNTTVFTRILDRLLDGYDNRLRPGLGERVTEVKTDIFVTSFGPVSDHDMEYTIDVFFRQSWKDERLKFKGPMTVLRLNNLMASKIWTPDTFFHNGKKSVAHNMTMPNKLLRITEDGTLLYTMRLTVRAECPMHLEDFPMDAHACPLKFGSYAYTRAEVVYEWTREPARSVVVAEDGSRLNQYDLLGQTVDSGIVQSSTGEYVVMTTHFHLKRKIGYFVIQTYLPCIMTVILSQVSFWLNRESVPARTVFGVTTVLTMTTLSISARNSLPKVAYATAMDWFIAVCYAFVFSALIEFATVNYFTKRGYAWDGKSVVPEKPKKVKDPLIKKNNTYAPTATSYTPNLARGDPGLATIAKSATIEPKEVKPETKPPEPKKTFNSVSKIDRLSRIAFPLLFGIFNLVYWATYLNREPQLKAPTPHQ

[8] = target: T3, Alpha-2C adrenergic receptor (Homo sapiens, UniProt P18825); assay type: functional
T3 sequence (P18825 whole entry): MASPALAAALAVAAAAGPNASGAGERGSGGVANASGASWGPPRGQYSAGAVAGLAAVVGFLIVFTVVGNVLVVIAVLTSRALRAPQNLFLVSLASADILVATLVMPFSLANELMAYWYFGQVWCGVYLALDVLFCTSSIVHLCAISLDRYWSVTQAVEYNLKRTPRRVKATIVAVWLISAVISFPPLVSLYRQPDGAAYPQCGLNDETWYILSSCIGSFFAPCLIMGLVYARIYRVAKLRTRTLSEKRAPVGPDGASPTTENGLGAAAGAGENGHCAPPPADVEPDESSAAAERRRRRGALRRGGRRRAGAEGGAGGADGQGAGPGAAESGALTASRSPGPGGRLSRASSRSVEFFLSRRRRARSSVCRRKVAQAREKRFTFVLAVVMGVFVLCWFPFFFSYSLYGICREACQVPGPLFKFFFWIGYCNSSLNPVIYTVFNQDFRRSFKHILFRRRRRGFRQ

[9] = target: T4, Muscarinic acetylcholine receptor M2 (Homo sapiens, UniProt P08172); assay type: functional, cell-based
T4 sequence (P08172 whole entry): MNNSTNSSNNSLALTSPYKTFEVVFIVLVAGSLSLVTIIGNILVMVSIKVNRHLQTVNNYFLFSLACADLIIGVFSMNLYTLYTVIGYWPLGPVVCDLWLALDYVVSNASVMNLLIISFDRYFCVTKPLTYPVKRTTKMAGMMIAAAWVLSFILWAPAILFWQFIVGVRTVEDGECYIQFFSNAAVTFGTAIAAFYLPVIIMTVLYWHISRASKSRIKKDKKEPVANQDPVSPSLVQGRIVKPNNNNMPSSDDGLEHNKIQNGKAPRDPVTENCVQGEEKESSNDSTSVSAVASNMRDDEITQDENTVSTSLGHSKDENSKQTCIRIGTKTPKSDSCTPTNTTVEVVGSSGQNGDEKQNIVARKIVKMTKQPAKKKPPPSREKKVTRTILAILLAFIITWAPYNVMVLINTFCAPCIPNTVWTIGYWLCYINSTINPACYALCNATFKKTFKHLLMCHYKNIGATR

[10] = target: T5, Glucocorticoid receptor (Homo sapiens, UniProt P04150)
T5 sequence (P04150 whole entry): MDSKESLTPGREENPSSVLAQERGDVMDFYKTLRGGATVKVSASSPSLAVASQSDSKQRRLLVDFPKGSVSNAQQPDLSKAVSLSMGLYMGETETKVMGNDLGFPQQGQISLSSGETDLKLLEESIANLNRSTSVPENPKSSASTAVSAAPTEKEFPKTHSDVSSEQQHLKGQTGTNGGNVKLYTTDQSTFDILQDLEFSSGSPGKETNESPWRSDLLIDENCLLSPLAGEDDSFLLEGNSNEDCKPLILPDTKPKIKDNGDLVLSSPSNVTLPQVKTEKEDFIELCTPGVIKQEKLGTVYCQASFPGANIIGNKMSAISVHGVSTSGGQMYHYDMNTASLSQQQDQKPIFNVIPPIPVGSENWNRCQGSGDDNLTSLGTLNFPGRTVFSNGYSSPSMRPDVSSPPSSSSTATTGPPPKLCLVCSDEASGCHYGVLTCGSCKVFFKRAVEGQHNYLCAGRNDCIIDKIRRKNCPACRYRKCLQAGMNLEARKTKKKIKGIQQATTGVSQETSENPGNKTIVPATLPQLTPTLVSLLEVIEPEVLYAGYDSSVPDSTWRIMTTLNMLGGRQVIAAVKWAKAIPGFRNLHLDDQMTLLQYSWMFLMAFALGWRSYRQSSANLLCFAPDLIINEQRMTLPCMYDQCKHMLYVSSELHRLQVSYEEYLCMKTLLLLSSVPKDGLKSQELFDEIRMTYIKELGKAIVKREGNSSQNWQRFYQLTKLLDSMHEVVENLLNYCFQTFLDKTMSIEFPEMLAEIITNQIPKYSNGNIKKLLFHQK
Note: assay procedure not described here.

Histamine H3 receptor, sequence (Q9Y5N1 whole entry): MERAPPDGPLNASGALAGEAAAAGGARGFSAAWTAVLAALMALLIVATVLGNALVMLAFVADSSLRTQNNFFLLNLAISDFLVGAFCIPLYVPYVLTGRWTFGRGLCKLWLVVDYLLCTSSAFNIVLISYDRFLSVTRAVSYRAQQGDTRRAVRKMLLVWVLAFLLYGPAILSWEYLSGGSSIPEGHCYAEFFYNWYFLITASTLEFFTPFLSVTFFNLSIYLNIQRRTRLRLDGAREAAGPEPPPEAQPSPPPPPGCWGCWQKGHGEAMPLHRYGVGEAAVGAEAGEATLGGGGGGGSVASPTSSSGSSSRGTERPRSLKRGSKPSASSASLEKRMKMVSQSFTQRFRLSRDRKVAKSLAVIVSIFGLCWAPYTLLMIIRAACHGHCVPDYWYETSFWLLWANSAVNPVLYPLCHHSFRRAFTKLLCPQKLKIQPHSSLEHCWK
D(1A) dopamine receptor, sequence (P21728 whole entry): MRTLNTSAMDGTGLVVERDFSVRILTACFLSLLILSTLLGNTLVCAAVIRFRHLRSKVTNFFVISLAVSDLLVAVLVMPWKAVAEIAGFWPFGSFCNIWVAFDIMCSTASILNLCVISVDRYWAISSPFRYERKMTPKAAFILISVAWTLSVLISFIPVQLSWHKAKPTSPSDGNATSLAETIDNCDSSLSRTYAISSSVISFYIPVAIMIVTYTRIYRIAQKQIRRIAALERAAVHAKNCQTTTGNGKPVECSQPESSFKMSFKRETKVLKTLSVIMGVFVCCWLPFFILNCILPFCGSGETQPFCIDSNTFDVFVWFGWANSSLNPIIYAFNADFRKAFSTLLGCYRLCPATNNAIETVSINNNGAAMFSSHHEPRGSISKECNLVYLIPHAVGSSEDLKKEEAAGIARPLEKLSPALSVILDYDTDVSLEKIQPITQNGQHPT
5-hydroxytryptamine receptor 2A, sequence (P28223 whole entry): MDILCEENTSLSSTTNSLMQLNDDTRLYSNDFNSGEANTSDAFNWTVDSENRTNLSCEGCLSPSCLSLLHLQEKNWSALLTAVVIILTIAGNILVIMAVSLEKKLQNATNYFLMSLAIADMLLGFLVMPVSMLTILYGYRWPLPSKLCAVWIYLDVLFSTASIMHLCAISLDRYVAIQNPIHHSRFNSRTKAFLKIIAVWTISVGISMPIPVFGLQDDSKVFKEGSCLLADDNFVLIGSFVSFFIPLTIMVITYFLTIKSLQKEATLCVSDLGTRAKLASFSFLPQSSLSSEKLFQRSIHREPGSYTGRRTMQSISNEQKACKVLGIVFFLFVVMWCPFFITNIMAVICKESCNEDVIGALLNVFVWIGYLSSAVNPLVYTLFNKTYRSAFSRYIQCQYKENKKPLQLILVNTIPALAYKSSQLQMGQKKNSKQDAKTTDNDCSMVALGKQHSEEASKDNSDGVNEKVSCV

SMILES	AC50 [1] [µM]	AC50 [2] [µM]	AC50 [3] [µM]	AC50 [4] [µM]	AC50 [5] [µM]	AC50 [6] [µM]	AC50 [7] [µM]	AC50 [8] [µM]	AC50 [9] [µM]	AC50 [10] [µM]
NS(=O)(=O)c1cc2c(cc1C(F)(F)F)NC(Cc1ccccc1)NS2(=O)=O (stereo not given) [BENDROFLUMETHIAZIDE]	> 10	> 10	> 10	> 10	> 30	> 30	> 10	> 10	> 10	
CCC(=O)OCC(=O)[C@@]1(OC(=O)CC)[C@@H](C)C[C@H]2[C@@H]3CCC4=CC(=O)C=C[C@]4(C)[C@@]3(F)[C@@H](O)C[C@@]21C [BETAMETHASONE DIPROPIONATE]	> 30	> 30	> 30	> 30	> 30		> 30	> 30	> 30	
CCCCC1(CC)C(=O)NC(=O)NC1=O [BUTETHAL]	> 30	> 30	> 30	> 30	> 30	> 30		> 30	> 30	> 30
CCOC(=O)NNc1ccc(N(CC)CC(C)O)nn1 (stereo not given) [CADRALAZINE]	> 30	> 30	> 30	27	> 30	> 30	> 30	> 30	> 30	
CCCC(C)(COC(N)=O)COC(=O)NC(C)C (stereo not given) [CARISOPRODOL]	> 10	> 10	> 30	> 10	> 30	> 30	> 10	> 10	> 10	
CO[C@@]1(NC(=O)Cc2cccs2)C(=O)N2C(C(=O)O)=C(COC(N)=O)CS[C@@H]21 [CEFOXITIN]	> 30	> 30	> 30	> 30	> 30	> 30	> 10	> 30	> 30	
CCOC(=O)Nc1ccc2c(c1)N(C(=O)CCN1CCOCC1)c1ccccc1S2 [MORICIZINE]	> 30	> 30	> 30		> 30	> 30	> 30	> 30	> 30	> 30
O=C1Nc2ccc(Cl)cc2C(c2ccccc2)=NC1O (stereo not given) [OXAZEPAM]	> 10	> 10	> 30	> 10	> 10	> 10	> 10	> 10	> 10	
Cc1ccc(=O)n(-c2ccccc2)c1 [PIRFENIDONE]	> 30	> 30	> 30	> 30	> 30	> 30	> 30	> 30	> 30	
